One block for each compound: values may come before it.
Key:
Mus musculus [1] = experiment: Anti-inflammatory activity in mouse assessed as inhibition of croton oil-induced ear edema at 0.3 umol/cm2 administered topically relative to control; format: functional
Mus musculus [2] = experiment: Anti-inflammatory activity in mouse assessed as inhibition of croton oil-induced ear edema at 10 umol/cm2 administered topically relative to control; format: functional
RAW264.7 [3] = experiment: Anti-inflammatory activity in mouse RAW264.7 cells assessed as inhibition of LPS-induced NO production; format: functional, cell-based
Mus musculus [4] = experiment: (§1) Anti-parkinson's activity in intranigral LPS-induced Parkinson's disease-like C57BL/6 mouse model assessed as inhibition of microglial hyperactivation by measuring IBA1 positive cells at 19.3 mg/kg, sc once daily for 21 days starting from day 1 post LPS treatment by immunohistochemistry relative to control; format: functional; conditions: C57BL/6, sc
Mus musculus [5] = experiment: Anti-parkinson's activity in intranigral LPS-induced Parkinson's disease-like C57BL/6 mouse model assessed as astrocytes activation at 19.3 mg/kg, sc once daily for 21 days starting from day 1 post LPS treatment by confocal fluorescence microscopic method relative to control; format: functional
Mus musculus [6] = experiment: as §1, with “protection against dopaminergic neuronal loss in substantia nigra” for “inhibition of microglial hyperactivation”, “increase in TH-positive neuronal” for “IBA1 positive”; format: functional
[7] = Antitumor activity in mouse adenocarcinoma model at 100 ppm relative to control; format: functional
[8] = Antitumor activity in mouse adenocarcinoma model at 500 ppm relative to control; format: functional
RAW264.7 [9] = experiment: Anti-inflammatory activity in mouse RAW264.7 cells assessed as inhibition of LPS-induced iNOS gene expression relative to control; format: functional
RAW264.7 [10] = experiment: Anti-inflammatory activity in mouse RAW264.7 cells assessed as inhibition of LPS-induced COX-2 gene expression relative to control; format: functional
Mus musculus [11] = experiment: Anti-inflammatory activity in mouse assessed as inhibition of carrageenan-induced paw edema at 10 mg/kg preincubated for 5 hrs followed by carrageenan challenge relative to control; format: functional
Neutrophil = experiment: Anti-inflammatory activity in human neutrophils assessed as inhibition of fMLP/CB-induced superoxide anion generation; format: functional, cell-based
Mus musculus [12] = experiment: as §1, with “25” for “19.3”; format: functional; conditions: C57BL/6, sc
Mus musculus [13] = experiment: Anti-parkinson's activity in intranigral LPS-induced Parkinson's disease-like C57BL/6 mouse model assessed as astrocytes activation at 25 mg/kg, sc once daily for 21 days starting from day 1 post LPS treatment by confocal fluorescence microscopic method relative to control; format: functional
Mus musculus [14] = experiment: as §1, with “protection against dopaminergic neuronal loss in substantia nigra” for “inhibition of microglial hyperactivation”, “increase in TH-positive neuronal” for “IBA1 positive”, “25” for “19.3”; format: functional

SMILES: CC(C)=CCOc1ccc(CCO)cc1 [ETROGOL]
inhibition (INH) (Mus musculus [1]): 32%
inhibition (INH) (Mus musculus [2]): 78%

IC50 (RAW264.7 [3]): 5.9 µM
SMILES: COc1c(OC/C=C(\C)CCC=C(C)C)ccc2ccc(=O)oc12 [COLLININ]

SMILES: CC(C)=CCOc1ccc2ccc(=O)oc2c1 [7-PRENYLOXYCOUMARIN]
inhibition in vivo at 19.3 mg/kg (Mus musculus [4]): 19.1%
Activity (Mus musculus [5]): 65.3%
fold change (FC) (Mus musculus [6]): 2.2

SMILES: C=C(C)CCC/C(C)=C/COc1ccc(/C=C/C(=O)N[C@@H](CCCNC(=N)N[N+](=O)[O-])C(=O)O)cc1OC
Activity [7]: 84%
Activity [8]: 94%

SMILES: COc1cc(CO)cc(OC)c1OCC=C(C)C
inhibition (INH) (Mus musculus [1]): 31%
inhibition (INH) (Mus musculus [2]): 77%

SMILES: CC(C)=CCOc1c2occc2cc2ccc(=O)oc12 [PENTOSALEN]
inhibition (INH) (RAW264.7 [9]): 69.2%
inhibition (INH) (RAW264.7 [10]): 66.7%
inhibition in vivo at 10 mg/kg (Mus musculus [11]): 54.4%
IC50 (Neutrophil): 1.7 µM

SMILES: CC(C)=CCOc1ccc(CCCO)cc1
inhibition (INH) (Mus musculus [1]): 28%
inhibition (INH) (Mus musculus [2]): 68%

SMILES: CC(C)=CCOC1=CC(=O)c2ccccc2C1=O
inhibition (INH) (Mus musculus [1]): 14%

SMILES: CC(C)=CCC/C(C)=C/COc1ccc2ccc(=O)oc2c1 [AURAPTENE]
inhibition in vivo at 25 mg/kg (Mus musculus [12]): 39.1%
Activity (Mus musculus [13]): 68.4%
fold change (FC) (Mus musculus [14]): 2.2

— ChEMBL document CHEMBL4152182, “Recent acquisitions on oxyprenylated secondary metabolites as anti-inflammatory agents” (Eur J Med Chem, 2018)
